Reference: the supplement of paper PMC10307832

What was measured:
Test in all cases: relative viability (nuclei count vs DMSO), 5 days (fraction); higher = more cells survive
[1] = compound: N#CC[C@H](C1CCCC1)n1cc(-c2ncnc3[nH]ccc23)cn1 [Ruxolitinib] + C[C@@H](Oc1cc(-c2cnn(C3CCNCC3)c2)cnc1N)c1c(Cl)ccc(F)c1Cl [Crizotinib] (partner 1 µM)
Method in brief: (§1)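 For relative viability, nuclei counts in treated wells were divided by those in vehicle wells. Lung cancer cell lines had been pin-tool dosed in 1536-well plates the day after seeding and cultured for 5 days, then fixed and stained in one step (final 0.05% Triton X-100, 1% formaldehyde, 1 ug/ml Hoechst) and imaged at 4×. Doses were one drug alone or a fixed anchor-drug dose plus five library-drug doses (not always all listed) in √10 steps, and values are duplicate-plate medians.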

[2] = compound: N#CC[C@H](C1CCCC1)n1cc(-c2ncnc3[nH]ccc23)cn1 [Ruxolitinib] + CCNC(=O)c1noc(-c2cc(C(C)C)c(O)cc2O)c1-c1ccc(CN2CCOCC2)cc1 [Luminespib] (partner 0.01 µM)
Method in brief: as §1

[3] = compound: CS(=O)(=O)c1ccc(C(=O)Nc2ccc(Cl)c(-c3ccccn3)c2)c(Cl)c1 [Vismodegib] + C[C@@H](Oc1cc(-c2cnn(C3CCNCC3)c2)cnc1N)c1c(Cl)ccc(F)c1Cl [Crizotinib] (partner 1 µM)
Method in brief: as §1

[4] = compound: N#CC[C@H](C1CCCC1)n1cc(-c2ncnc3[nH]ccc23)cn1 [Ruxolitinib] + Nc1nc2[nH]cc(CCc3ccc(C(=O)N[C@@H](CCC(=O)O)C(=O)O)cc3)c2c(=O)[nH]1 [Pemetrexed] (partner 0.2 µM)
Method in brief: as §1

Cell Line: LU99A
- relative viability ([1]; first compound 0.08 µM): 0.588
- relative viability ([1]; first compound 0.253 µM): 0.655
- relative viability ([1]; first compound 0.8 µM): 0.532
- relative viability ([1]; first compound 2.53 µM): 0.612
- relative viability ([1]; first compound 8 µM): 0.519
- relative viability ([2]; first compound 0.08 µM): 0.224
- relative viability ([2]; first compound 0.253 µM): 0.265
- relative viability ([2]; first compound 0.8 µM): 0.353
- relative viability ([2]; first compound 2.53 µM): 0.23
- relative viability ([2]; first compound 8 µM): 0.23
- relative viability ([3]; first compound 0.08 µM): 0.664
- relative viability ([3]; first compound 0.253 µM): 0.49
- relative viability ([3]; first compound 0.8 µM): 0.575
- relative viability ([3]; first compound 2.53 µM): 0.491
- relative viability ([3]; first compound 8 µM): 0.624
- relative viability ([4]; first compound 0.08 µM): 0.171
- relative viability ([4]; first compound 0.253 µM): 0.179
- relative viability ([4]; first compound 0.8 µM): 0.178
- relative viability ([4]; first compound 2.53 µM): 0.186
- relative viability ([4]; first compound 8 µM): 0.195

Cell Line: LXF-289
- relative viability ([1]; first compound 0.08 µM): 0.777
- relative viability ([1]; first compound 0.253 µM): 0.805
- relative viability ([1]; first compound 0.8 µM): 0.781
- relative viability ([1]; first compound 2.53 µM): 0.757
- relative viability ([1]; first compound 8 µM): 0.737
- relative viability ([2]; first compound 0.08 µM): 0.608
- relative viability ([2]; first compound 0.253 µM): 0.784
- relative viability ([2]; first compound 0.8 µM): 0.732
- relative viability ([2]; first compound 2.53 µM): 0.674
- relative viability ([2]; first compound 8 µM): 0.628
- relative viability ([3]; first compound 0.08 µM): 0.806
- relative viability ([3]; first compound 0.253 µM): 0.772
- relative viability ([3]; first compound 0.8 µM): 0.816
- relative viability ([3]; first compound 2.53 µM): 0.745
- relative viability ([3]; first compound 8 µM): 0.781
- relative viability ([4]; first compound 0.08 µM): 0.866
- relative viability ([4]; first compound 0.253 µM): 0.943
- relative viability ([4]; first compound 0.8 µM): 0.925
- relative viability ([4]; first compound 2.53 µM): 0.933
- relative viability ([4]; first compound 8 µM): 0.852

Cell Line: NCI-H23
- relative viability ([1]; first compound 0.08 µM): 0.457
- relative viability ([1]; first compound 0.253 µM): 0.527
- relative viability ([1]; first compound 0.8 µM): 0.71
- relative viability ([1]; first compound 2.53 µM): 0.43
- relative viability ([1]; first compound 8 µM): 0.488
- relative viability ([2]; first compound 0.08 µM): 0.195
- relative viability ([2]; first compound 0.253 µM): 0.209
- relative viability ([2]; first compound 0.8 µM): 0.242
- relative viability ([2]; first compound 2.53 µM): 0.214
- relative viability ([2]; first compound 8 µM): 0.191
- relative viability ([3]; first compound 0.08 µM): 0.489
- relative viability ([3]; first compound 0.253 µM): 0.54
- relative viability ([3]; first compound 0.8 µM): 0.597
- relative viability ([3]; first compound 2.53 µM): 0.553
- relative viability ([3]; first compound 8 µM): 0.537
- relative viability ([4]; first compound 0.08 µM): 0.779
- relative viability ([4]; first compound 0.253 µM): 0.787
- relative viability ([4]; first compound 0.8 µM): 0.755
- relative viability ([4]; first compound 2.53 µM): 0.708
- relative viability ([4]; first compound 8 µM): 0.564

Cell Line: NCI-H522
- relative viability ([2]; first compound 0.08 µM): 1.14
- relative viability ([2]; first compound 0.253 µM): 1.81
- relative viability ([2]; first compound 0.8 µM): 1.25
- relative viability ([2]; first compound 2.53 µM): 0.884
- relative viability ([2]; first compound 8 µM): 1.64
- relative viability ([4]; first compound 0.08 µM): 1.04
- relative viability ([4]; first compound 0.253 µM): 0.973
- relative viability ([4]; first compound 0.8 µM): 1.05
- relative viability ([4]; first compound 2.53 µM): 0.964
- relative viability ([4]; first compound 8 µM): 0.857

Cell Line: NCI-H727
- relative viability ([1]; first compound 0.08 µM): 0.93
- relative viability ([1]; first compound 0.253 µM): 0.799
- relative viability ([1]; first compound 0.8 µM): 1.1
- relative viability ([1]; first compound 2.53 µM): 0.832
- relative viability ([1]; first compound 8 µM): 0.962
- relative viability ([2]; first compound 0.08 µM): 0.3
- relative viability ([2]; first compound 0.253 µM): 0.357
- relative viability ([2]; first compound 0.8 µM): 0.655
- relative viability ([2]; first compound 2.53 µM): 0.35
- relative viability ([2]; first compound 8 µM): 0.2
- relative viability ([3]; first compound 0.08 µM): 0.733
- relative viability ([3]; first compound 0.253 µM): 0.771
- relative viability ([3]; first compound 0.8 µM): 0.576
- relative viability ([3]; first compound 2.53 µM): 0.938
- relative viability ([3]; first compound 8 µM): 0.857

Cell Line: NCI-H1299
- relative viability ([1]; first compound 0.08 µM): 0.981
- relative viability ([1]; first compound 0.253 µM): 0.909
- relative viability ([1]; first compound 0.8 µM): 0.973
- relative viability ([1]; first compound 2.53 µM): 0.839
- relative viability ([1]; first compound 8 µM): 0.704
- relative viability ([3]; first compound 0.08 µM): 0.918
- relative viability ([3]; first compound 0.253 µM): 0.929
- relative viability ([3]; first compound 0.8 µM): 0.96
- relative viability ([3]; first compound 2.53 µM): 0.96
- relative viability ([3]; first compound 8 µM): 0.947

Cell Line: NCI-H1395
- relative viability ([2]; first compound 0.08 µM): 0.89
- relative viability ([2]; first compound 0.253 µM): 0.661
- relative viability ([2]; first compound 0.8 µM): 0.863
- relative viability ([2]; first compound 2.53 µM): 0.623
- relative viability ([2]; first compound 8 µM): 0.592
- relative viability ([4]; first compound 0.08 µM): 0.662
- relative viability ([4]; first compound 0.253 µM): 0.685
- relative viability ([4]; first compound 0.8 µM): 0.856
- relative viability ([4]; first compound 2.53 µM): 0.97
- relative viability ([4]; first compound 8 µM): 0.729

Cell Line: NCI-H1623
- relative viability ([2]; first compound 0.08 µM): 0.423
- relative viability ([2]; first compound 0.253 µM): 0.431
- relative viability ([2]; first compound 0.8 µM): 0.705
- relative viability ([2]; first compound 2.53 µM): 0.526
- relative viability ([2]; first compound 8 µM): 0.765

Cell Line: NCI-H1648
- relative viability ([4]; first compound 0.08 µM): 0.674
- relative viability ([4]; first compound 0.253 µM): 0.838
- relative viability ([4]; first compound 0.8 µM): 0.739
- relative viability ([4]; first compound 2.53 µM): 0.923
- relative viability ([4]; first compound 8 µM): 1.02

Cell Line: NCI-H1703
- relative viability ([1]; first compound 0.08 µM): 0.643
- relative viability ([1]; first compound 0.253 µM): 0.611
- relative viability ([1]; first compound 0.8 µM): 0.832
- relative viability ([1]; first compound 2.53 µM): 0.497
- relative viability ([1]; first compound 8 µM): 0.241
- relative viability ([3]; first compound 0.08 µM): 0.54
- relative viability ([3]; first compound 0.253 µM): 0.664
- relative viability ([3]; first compound 0.8 µM): 0.628
- relative viability ([3]; first compound 2.53 µM): 0.57
- relative viability ([3]; first compound 8 µM): 0.93

Cell Line: NCI-H1793
- relative viability ([2]; first compound 0.08 µM): 0.221
- relative viability ([2]; first compound 0.253 µM): 0.204
- relative viability ([2]; first compound 0.8 µM): 0.169
- relative viability ([2]; first compound 2.53 µM): 0.156
- relative viability ([2]; first compound 8 µM): 0.136
- relative viability ([4]; first compound 0.08 µM): 0.835
- relative viability ([4]; first compound 0.253 µM): 0.938
- relative viability ([4]; first compound 0.8 µM): 1.15
- relative viability ([4]; first compound 2.53 µM): 1.06
- relative viability ([4]; first compound 8 µM): 0.664

Cell Line: NCI-H2342
- relative viability ([2]; first compound 0.08 µM): 0.748
- relative viability ([2]; first compound 0.253 µM): 0.79
- relative viability ([2]; first compound 0.8 µM): 0.863
- relative viability ([2]; first compound 2.53 µM): 0.788
- relative viability ([2]; first compound 8 µM): 0.728
- relative viability ([4]; first compound 0.08 µM): 0.594
- relative viability ([4]; first compound 0.253 µM): 0.767
- relative viability ([4]; first compound 0.8 µM): 0.812
- relative viability ([4]; first compound 2.53 µM): 0.752
- relative viability ([4]; first compound 8 µM): 0.733

Cell Line: SW 900
- relative viability ([2]; first compound 0.08 µM): 0.175
- relative viability ([2]; first compound 0.253 µM): 0.181
- relative viability ([2]; first compound 0.8 µM): 0.181
- relative viability ([2]; first compound 2.53 µM): 0.154
- relative viability ([2]; first compound 8 µM): 0.193
- relative viability ([4]; first compound 0.08 µM): 0.467
- relative viability ([4]; first compound 0.253 µM): 0.493
- relative viability ([4]; first compound 0.8 µM): 0.485
- relative viability ([4]; first compound 2.53 µM): 0.466
- relative viability ([4]; first compound 8 µM): 0.532
